For orientation: EC50 means the concentration giving half of the maximal effect.

We go through three compounds from patent US9890117B2, “Benzamide compounds and related methods of use” (Northwestern University, priority 2012, dated 2018).

Series [1] relates to N2a cells. As to the kind of experiment: Toxicity monitoring in N2a cells. It is filed as cell-based. On the procedure:
(§1) To assess SIRT2 inhibition activity in cells, an increase in α-tubulin K40 acetylation (α-tubulin is a substrate for SIRT2) in neuronal N2a and in wild type and HD ST141 cell lines was measured. In this bioactivity test, extracts from compound-treated cells were resolved on SDS-PAGE and subjected to Western analysis using primary antibodies specific to K40 acetylated α-tubulin. Trichostatin A (TSA), a potent HDAC inhibitor, was used as a positive control. To normalize the levels of acetylated α-tubulin we used total α-tubulin and GADPH proteins, detected by Western reactive antibodies specific to total α-tubulin and GADPH. […] FIGS. 2A-B show the bioactivity of 61 and 64 in N2a cells at three tested concentrations (10, 25, and 50 μM). Toxicity of the compounds was monitored in both cell lines, and most of them were non-toxic up to 50 μM in a 6 h treatment.

Series [2] concerns WT st14a cells. As to the kind of experiment: Toxicity monitoring in WT st14a cells. The class given is cell-based. To be noted: up to 18 h treatment.
A short description of series [3]: Microsomal stability screen, human. To be noted: 1 μM.
Series [4] in a line: Microsomal stability screen, mouse. To be noted: 1 μM.
Series [5] has as its target T1, SIRT2 (Homo sapiens, UniProt Q8IXJ6).
T1 construct: recombinant active enzymes SIRT1, SIRT2, and the catalytically active fragment of SIRT3
T1 sequence (Q8IXJ6 1-389): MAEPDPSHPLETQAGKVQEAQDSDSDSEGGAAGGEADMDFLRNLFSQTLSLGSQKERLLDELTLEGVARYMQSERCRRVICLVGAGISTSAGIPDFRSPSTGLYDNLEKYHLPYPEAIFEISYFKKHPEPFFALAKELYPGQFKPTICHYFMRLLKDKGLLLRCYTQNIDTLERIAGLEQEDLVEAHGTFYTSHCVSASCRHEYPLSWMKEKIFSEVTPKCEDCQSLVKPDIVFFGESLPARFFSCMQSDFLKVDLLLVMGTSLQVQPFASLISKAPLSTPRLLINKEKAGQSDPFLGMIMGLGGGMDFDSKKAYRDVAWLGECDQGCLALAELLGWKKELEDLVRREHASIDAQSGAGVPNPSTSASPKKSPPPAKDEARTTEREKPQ
As to the kind of experiment: Fluor-de-Lys biochemical sirtuin deacetylation assay, SIRT2. To be noted: dose-response, five doses, side-by-side with AK-1.

Series [6] has as its target T2, SIRT1 (Homo sapiens, UniProt Q96EB6).
T2 sequence (Q96EB6 1-747): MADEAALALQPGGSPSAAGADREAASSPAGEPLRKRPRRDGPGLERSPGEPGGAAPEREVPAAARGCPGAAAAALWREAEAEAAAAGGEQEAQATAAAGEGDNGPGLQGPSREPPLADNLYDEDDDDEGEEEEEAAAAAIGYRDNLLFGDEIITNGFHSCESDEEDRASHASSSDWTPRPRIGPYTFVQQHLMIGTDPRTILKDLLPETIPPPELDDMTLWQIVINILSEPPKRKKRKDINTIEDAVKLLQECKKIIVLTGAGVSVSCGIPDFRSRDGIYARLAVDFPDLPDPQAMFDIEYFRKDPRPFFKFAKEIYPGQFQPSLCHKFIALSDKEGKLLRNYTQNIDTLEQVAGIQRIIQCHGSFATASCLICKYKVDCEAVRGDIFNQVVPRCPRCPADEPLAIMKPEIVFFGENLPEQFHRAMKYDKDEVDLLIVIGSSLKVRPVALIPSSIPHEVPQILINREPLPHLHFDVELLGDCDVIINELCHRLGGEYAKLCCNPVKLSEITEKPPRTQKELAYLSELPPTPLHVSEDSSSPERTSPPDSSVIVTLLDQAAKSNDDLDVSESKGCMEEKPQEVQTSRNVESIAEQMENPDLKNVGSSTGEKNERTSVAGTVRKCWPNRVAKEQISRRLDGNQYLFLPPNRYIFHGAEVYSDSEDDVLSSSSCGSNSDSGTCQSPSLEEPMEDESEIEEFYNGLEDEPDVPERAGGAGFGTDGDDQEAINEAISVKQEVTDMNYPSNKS
As to the kind of experiment: Fluor-de-Lys biochemical sirtuin deacetylation assay, SIRT1 counter-screen. To be noted: 10 μM counter-screen. How it is done:
To evaluate the potency and selectivity of the synthesized compounds robust, sensitive, and quantitative, biochemical sirtuin deacetylation assays were employed. (SIRT2 then SIRT1 and SIRT3 for selectivity). Sirtuin activity was assessed using the Fluor-de-Lys assay with recombinant active enzymes SIRT1, SIRT2, and the catalytically active fragment of SIRT3, as described in the literature. […] AK-1 was included as the reference compound with each assay. […] Those compounds also were subjected to SIRT1 and SIRT3 assays to determine sirtuin selectivity.
As discussed above, Tables 1-10 are presented and followed by details relating to the synthesis and characterization of compounds prepared. Inhibition assays and related testing of such compounds are conducted according to well-known literature protocols including those found in Silverman, et al., Biorg. Med. Chem. Lett. 22 (2012) 2789-2793 and the references cited therein, such references and tests incorporated herein by reference.

The test system of series [7] is α-tubulin K40 acetylation (SIRT2 substrate) in N2a cells. As to the kind of experiment: α-tubulin K40 acetylation (Western) in neuronal N2a cells. It is filed as cell-based. To be noted: N2a cells, 10, 25, 50 μM, 6 h. On the procedure: FIGS. 2A-B. Cell-based assay for evaluating the bioactivity of SIRT2 inhibitors. A) Extracts from neuronal N2a cells treated with 61 and 64 for 6 h were resolved on SDS-PAGE and analyzed by Western analysis using antibodies specific to acetylated α-tubulin, and normalized to GADPH and total α-tubulin (not shown) levels.
as §1

For series [8], the system named is α-tubulin K40 acetylation (SIRT2 substrate) in wild type and HD ST141 cell lines. As to the kind of experiment: α-tubulin K40 acetylation (Western) in wild type and HD ST141 cell lines. It is filed as cell-based. On the procedure: as §1
The test system of series [9] is polyQ aggregation. To be noted: cell-based model; read-out: suppression of aggregation, EC50; cited from earlier work.
The test system of series [10] is huntingtin (htt) aggregation. To be noted: R6/2 mice; cited from earlier work.
Series [11] relates to htt aggregation. To be noted: 140 CAG knock-in model of HD; cited from earlier work.
For series [12] the following is noted: in vivo; cited from earlier work.
The conditions of series [13]: cited from earlier work.

As to `COc1ccc(N(C)S(=O)(=O)c2cccc(C(=O)Nc3ccc(C#N)cc3)c2)cc1` [Compound 90, N-(4-Cyanophenyl)-3-(N-(4-methoxyphenyl)-N-methylsulfamoyl)benzamide], the toxicity entry in [1] (25 μM) is “partially toxic”; in series [1] (50 μM), “toxic”; in series [2], “no toxicity was observed”. Further, the “Mean remaining parent NADPH-free (%)” value in series [3] came to 106%; in [4], 90%. Further, the “Mean remaining parent with NADPH (%)” value in series [3] and in [4] was 2% throughout.

`CN(c1ccc(S(C)(=O)=O)cc1)S(=O)(=O)c1cccc(C(=O)Nc2ccc(C#N)cc2)c1` [Compound 115, N-(4-Cyanophenyl)-3-(N-methyl-N-(4-(methylsulfonyl)phenyl)sulfamoyl)benzamide]: the “SIRT2 inhibition potency compared with AK-1” value in series [5] is listed as “significantly more potent”. Besides, the “SIRT1 inhibition” value in series [6] is reported as “minimal SIRT1 inhibition”. Also, the “increase in α-tubulin K40 acetylation” value in [7] and in series [8] was “did not show any significant increase” throughout.

With `O=C(Nc1ccc(Br)cc1)c1cccc(S(=O)(=O)Nc2ccc(Br)cc2)c1` [Compound C2-8], the EC50 in series [9] is 0.05 µM. Moreover, the “inhibition of huntingtin (htt) aggregation in the striatum” value in series [10] is recorded as 25-30%. Also, the “reduction of htt aggregation” value in series [11] was 50%. The “toxicity in acute and chronic tolerability studies” value in [12] is reported as “not toxic”. Also, the aqueous solubility result in series [13] is on record as “low aqueous solubility”.
